Data published in patent publication US20090170880A1, “Methods and Means for the Treatment of Cancer” (priority 2007, published 2009).

Key:
[1] = molecular target: T1, murine P-gp (Mdr1a) (Mus musculus, UniProt P21447); assay: Transwell transport of temozolomide, LLC-Mdr1a cells; format: in vitro ADME; conditions: 40 μg/ml, LLC-Mdr1a versus LLC-PK1 monolayers
T1 construct: expressed in transfected cells; host or cells: LLC-PK1 (porcine kidney) cells transduced with murine Mdr1a
Method: The parental LLC pig-kidney (PK1) cell line and sublines transduced with murine Mdr1a or human MDR1 (12) and the parental Madine Darby Canine Kidney (MDCK) and murine Bcrp1 or human BCRP transduced sublines (13) were seeded on Transwell microporous polycarbonate membrane filters (3.0 μm pore size, 24 mm diameter; Costar Corning, N.Y., USA) at a density of 1×10^6 cells per well in 2 ml of MEM medium (Invitrogen Corporation, Carlsbad, Calif.) containing 10% v/v fetal calf serum. Cells were incubated at 37° C. in 5% CO2 for three days with one medium replacement after the first day. Two hours before the start of the experiment the medium in both compartments was replaced with 2 ml of OptiMEM medium (InVitrogen Corp.). At the start of the experiment the medium in the apical or basolateral compartment was replaced with 2 ml of freshly prepared OptiMEM medium containing 40 μg/ml of temozolomide. […] Zosuquidar (LY335979, 5 μM) was always added to the medium when doing experiments with MDCK cell lines to inhibit endogenous canine P-gp. Samples of 50 μl were collected every 30 min, for up to 2 h after start of the experiment. Because temozolomide is instable in medium at 37° C., we replaced one ml of the donor compartment by a freshly prepared aliquot every 30 min. […]

[2] = molecular target: T2, murine Bcrp1 (Mus musculus, UniProt Q7TMS5); assay: Transwell transport of temozolomide, MDCKII-Bcrp1 cells, without or with inhibitors; format: in vitro ADME; conditions: 40 μg/ml, MDCK-Bcrp1 versus MDCK parent, zosuquidar 5 μM
T2 construct: expressed in transfected cells; host or cells: MDCKII (canine kidney) cells transduced with murine Bcrp1
T2 sequence (Q7TMS5 1-657): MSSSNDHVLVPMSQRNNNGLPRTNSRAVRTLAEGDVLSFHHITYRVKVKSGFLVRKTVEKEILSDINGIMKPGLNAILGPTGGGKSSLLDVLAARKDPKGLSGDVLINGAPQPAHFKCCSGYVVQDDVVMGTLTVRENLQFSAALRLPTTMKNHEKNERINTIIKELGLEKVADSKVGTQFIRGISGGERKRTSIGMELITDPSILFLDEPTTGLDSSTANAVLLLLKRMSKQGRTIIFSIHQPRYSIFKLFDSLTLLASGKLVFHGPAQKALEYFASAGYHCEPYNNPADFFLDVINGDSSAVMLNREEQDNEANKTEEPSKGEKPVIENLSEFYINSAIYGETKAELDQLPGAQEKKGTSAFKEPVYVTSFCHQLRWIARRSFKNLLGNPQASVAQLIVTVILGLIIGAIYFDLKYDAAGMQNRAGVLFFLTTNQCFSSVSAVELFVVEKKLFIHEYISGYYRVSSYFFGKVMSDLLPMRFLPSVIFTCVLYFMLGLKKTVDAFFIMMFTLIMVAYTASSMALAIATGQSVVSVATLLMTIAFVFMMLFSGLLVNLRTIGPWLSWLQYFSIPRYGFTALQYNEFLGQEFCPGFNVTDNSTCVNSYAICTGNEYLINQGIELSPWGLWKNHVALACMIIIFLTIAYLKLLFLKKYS
Method: The parental LLC pig-kidney (PK1) cell line and sublines transduced with murine Mdr1a or human MDR1 (12) and the parental Madine Darby Canine Kidney (MDCK) and murine Bcrp1 or human BCRP transduced sublines (13) were seeded on Transwell microporous polycarbonate membrane filters (3.0 μm pore size, 24 mm diameter; Costar Corning, N.Y., USA) at a density of 1×10^6 cells per well in 2 ml of MEM medium (Invitrogen Corporation, Carlsbad, Calif.) containing 10% v/v fetal calf serum. Cells were incubated at 37° C. in 5% CO2 for three days with one medium replacement after the first day. Two hours before the start of the experiment the medium in both compartments was replaced with 2 ml of OptiMEM medium (InVitrogen Corp.). At the start of the experiment the medium in the apical or basolateral compartment was replaced with 2 ml of freshly prepared OptiMEM medium containing 40 μg/ml of temozolomide. […] Zosuquidar (LY335979, 5 μM) was always added to the medium when doing experiments with MDCK cell lines to inhibit endogenous canine P-gp. Samples of 50 μl were collected every 30 min, for up to 2 h after start of the experiment. Because temozolomide is instable in medium at 37° C., we replaced one ml of the donor compartment by a freshly prepared aliquot every 30 min. [^3H]-inulin (approximately 7 kBq per well) was added to the same compartment as temozolomide to check the integrity of the cell layer. Wells showing a leakage of more than 1.5% per hour were excluded.
First, we took samples every 30 min for up to 2 h instead of every hour for up to 4 h. Secondly, to maintain adequate temozolomide levels at the donor side throughout the experiment we replaced 1 ml of the 2 ml of medium at the donor side of the transwell at each sampling time by 1 ml of a freshly prepared temozolomide solution in medium.

[3] = Stability of temozolomide in culture medium; format: physicochemical
[4] = test system: U87; assay: Antitumor response against U87 tumor; format: in vivo; conditions: one single dose of 25 mg/kg, results not shown

T1 sequence (P21447 whole entry): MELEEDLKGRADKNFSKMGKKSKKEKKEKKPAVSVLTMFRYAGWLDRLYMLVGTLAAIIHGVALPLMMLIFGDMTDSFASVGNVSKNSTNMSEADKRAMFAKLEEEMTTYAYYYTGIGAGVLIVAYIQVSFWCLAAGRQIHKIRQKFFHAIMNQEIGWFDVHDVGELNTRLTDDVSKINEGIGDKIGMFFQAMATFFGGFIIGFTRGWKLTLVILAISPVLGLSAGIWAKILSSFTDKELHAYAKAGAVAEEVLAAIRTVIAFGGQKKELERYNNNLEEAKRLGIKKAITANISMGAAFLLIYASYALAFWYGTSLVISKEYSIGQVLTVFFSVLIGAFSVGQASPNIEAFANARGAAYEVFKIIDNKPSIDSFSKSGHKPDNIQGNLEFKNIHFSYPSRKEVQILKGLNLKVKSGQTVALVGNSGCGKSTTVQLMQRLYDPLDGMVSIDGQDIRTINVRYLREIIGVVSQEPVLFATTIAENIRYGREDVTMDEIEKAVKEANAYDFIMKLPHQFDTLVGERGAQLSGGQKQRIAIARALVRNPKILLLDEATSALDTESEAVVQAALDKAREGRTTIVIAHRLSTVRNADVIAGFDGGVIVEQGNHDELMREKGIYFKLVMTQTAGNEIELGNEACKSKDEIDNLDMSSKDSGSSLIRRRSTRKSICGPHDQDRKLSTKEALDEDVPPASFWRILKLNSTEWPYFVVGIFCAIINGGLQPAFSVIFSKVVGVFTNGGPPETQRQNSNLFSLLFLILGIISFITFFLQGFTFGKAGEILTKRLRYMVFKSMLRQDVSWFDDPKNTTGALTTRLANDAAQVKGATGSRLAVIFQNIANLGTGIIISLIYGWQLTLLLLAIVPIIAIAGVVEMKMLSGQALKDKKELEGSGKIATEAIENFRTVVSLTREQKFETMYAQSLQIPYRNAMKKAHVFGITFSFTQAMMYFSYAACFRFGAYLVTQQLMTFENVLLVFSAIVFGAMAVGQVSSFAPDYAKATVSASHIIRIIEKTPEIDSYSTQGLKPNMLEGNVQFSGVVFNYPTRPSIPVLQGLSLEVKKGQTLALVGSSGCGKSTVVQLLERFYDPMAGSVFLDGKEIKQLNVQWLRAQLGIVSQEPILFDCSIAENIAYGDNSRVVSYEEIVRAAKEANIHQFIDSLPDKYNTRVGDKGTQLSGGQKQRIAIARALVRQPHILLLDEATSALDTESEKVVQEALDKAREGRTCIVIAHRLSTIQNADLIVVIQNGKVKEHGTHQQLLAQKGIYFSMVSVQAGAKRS

- transport of temozolomide by murine P-gp ([1]; listed as Temozolomide): not readily detected
- transport of temozolomide by murine Bcrp1 [2]: clear vectorial transport
- transport of temozolomide by murine Bcrp1 ([2]; listed as Temozolomide): evident
- half-life ([3]; culture medium at 37° C.): ~30 min
- degradation ([3]; pH 7.4, in 30 min): about 50%
SMILES: Cn1nnc2c(C(N)=O)ncn2c1=O [temozolomide, 8-carbamoyl-3-methyl-[3H]-imidazo[5,1-d]-1,2,3,5-tetrazin-4-one]
- transport of temozolomide by murine P-gp [1]: very limited if any evidence for transport
- antitumor response [4]: significant antitumor response
